Laboratory results taken from paper PMC8219695 (Nature Communications, 2021).
Where “and” joins values, the source holds several entries; their conditions need not be identical. Equal values may be shown once.

Key:
mMOR [1] = molecular target: T1, mMOR (Mus musculus, UniProt P42866); experiment: [125I]BNtxA radioligand competition binding, mouse MOR; conditions: mean ± SEM, n = 3; [125I]BNtxA; read-out: Ki ± SEM mMOR
T1 construct: signal peptide (heterologous, not specified) (N); expressed in transfected cells; pcDNA3.1(+) construct made in house

mKOR = molecular target: T2, mKOR (Mus musculus, UniProt P33534); experiment: [125I]BNtxA radioligand competition binding, mouse KOR; conditions: mean ± SEM, n = 3; [125I]BNtxA; read-out: Ki ± SEM mKOR
T2 construct: expressed in transfected cells; membranes

mDOR [2] = molecular target: T3, mDOR (Mus musculus, UniProt P32300); experiment: [125I]BNtxA radioligand competition binding, mouse DOR; conditions: mean ± SEM, n = 3; [125I]BNtxA; read-out: Ki ± SEM mDOR
T3 construct: expressed in transfected cells

mMOR [3] = molecular target: T1, mMOR; experiment: CAMYEL BRET cAMP agonist assay at mMOR; assay type: cell-based; conditions: mMOR; for cAMP %: single replicates, source data Fig 6b, listed as C11-F-7OH (22)
hMOR [4] = molecular target: T4, hMOR (Homo sapiens, UniProt P35372); experiment: CAMYEL BRET cAMP agonist assay at hMOR; assay type: cell-based; conditions: for cAMP %: hMOR, single replicates, source data Fig 6c, listed as C11-F-7OH (22)
T4 construct: expressed in transfected cells; plasmid a gift from Dr. Nevin Lambert

mMOR [5] = molecular target: T1, mMOR; experiment: BRET-based Nb33 recruitment assay at mMOR; assay type: cell-based; conditions: for Nb33 BRET assay at mMOR, response: single replicates, source data Fig 7a, listed as C11-F-7OH (22)
mMOR [6] = molecular target: T1, mMOR; experiment: CAMYEL BRET antagonism assay at mMOR (inhibition of DAMGO); assay type: cell-based; conditions: for Antagonist activity at mMOR, raw signal (single replicate values): source data of Fig 8a and Table 5, listed as C11-F-7OH (22);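 on Antagonist activity at mMOR, raw signal (single replicate values): BRET signal rises as cAMP falls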
hMOR [7] = molecular target: T4, hMOR; experiment: cell-based
mDOR [8] = molecular target: T3, mDOR; experiment: CAMYEL BRET cAMP agonist assay at mDOR; assay type: cell-based; conditions: for Agonist activity of 7OH analogs at mDOR: single replicate values, Supplementary Figure 7B
hDOR = hDOR (Homo sapiens, UniProt P41143); experiment: CAMYEL BRET cAMP agonist assay at hDOR; assay type: cell-based; conditions: Log[drug] (M) -5; single replicate values, Supplementary Figure 7A
[9] = Log[drug] (M) -13, cAMP inhibition as % of DAMGO

CC[C@@H]1CN2CC[C@@]3(O)C(=Nc4cc(F)cc(OC)c43)[C@@H]2C[C@@H]1/C(=C\OC)C(=O)OC [11-F-7OH (22), 11-Fluoro-7-hydroxymitragynine]
Ki (mMOR [1]): 13.7 ± 1 nM | Ki (mKOR): 21 ± 3.2 nM | Ki (mDOR [2]): 35.8 ± 2 nM | cAMP % (mMOR [3]; Log[drug] (M) -5): 18.6612% and 13.4113% and 8.551% and 30.7876% and 22.9326% and 28.8572% and 20.3955% and 21.355% and 24.4984% | cAMP % (mMOR [3]; Log[drug] (M) -6): 25.4304% and 7.798% and 14.3775% and 23.1589% and 22.9335% and 14.5614% and 26.2834% and 10.6621% and 13.744% | cAMP % (mMOR [3]; Log[drug] (M) -7): 4.791% and 10.9715% and 7.661% and 21.2718% and 20.4101% and 18.8827% and 13.0494% and 8.164% and 16.1975% | cAMP % (mMOR [3]; Log[drug] (M) -8): 1.666% and 6.134% and 7.138% and 7.653% and 6.95% and 8.768% and 3.363% and -0.1101% and 16.7433% | cAMP % (mMOR [3]; Log[drug] (M) -9): 0.8145% and -7.096% and 6.2815% and 3.889% and -6.162% and 2.273% and -4.16% and 0.06827% and 4.092% | cAMP % (mMOR [3]; Log[drug] (M) -10): 13.6379% and 11.7751% and 16.0473% and 16.5566% and -2.169% and 7.345% and 0.7238% and 2.035% and 11.7782% | cAMP % (mMOR [3]; Log[drug] (M) -11): 20.0905% and 12.8035% and 2.268% and 1.246% and -1.253% and 18.3526% and 6.666% and -0.8467% and -5.17% | cAMP % (mMOR [3]; [9]): 13.7634% and 17.6649% and 9.384% and 11.7249% and -6.349% and 6.202% and -0.02358% and 4.732% and 0.04545% | Emax (mMOR [3]; maximal inhibitory effect on cAMP levels relative to DAMGO): 21% | EC50 (mMOR [3]; n = 3, read-out: EC50): 97 nM | EC50 (hMOR [4]): 29.4 nM | Emax (hMOR [4]): 57% | cAMP % (hMOR [4]; Log[drug] (M) -5): 51.264% and 45.9513% and 58.1795% and 79.6476% and 68.1188% and 65.3013% and 52.2398% and 64.2986% and 49.6622% | cAMP % (hMOR [4]; Log[drug] (M) -6): 56.7369% and 57.602% and 54.9333% and 67.8605% and 67.5648% and 53.8544% and 46.4412% and 33.3921% and 44.9213% | cAMP % (hMOR [4]; Log[drug] (M) -7): 48.1791% and 37.8893% and 39.1827% and 53.5374% and 50.3292% and 51.3541% and 36.9409% and 28.5036% and 44.2511% | cAMP % (hMOR [4]; Log[drug] (M) -8): 15.2392% and 22.4344% and 23.7656% and 25.1778% and 17.6434% and 19.3494% and 5.0692% and 13.2412% and 14.3735% | cAMP % (hMOR [4]; Log[drug] (M) -9): 4.113% and -7.3719% and 5.178% and 7.448% and -11.6959% and 4.5476% and -1.276% and -3.182% and 19.3939% | cAMP % (hMOR [4]; Log[drug] (M) -10): 2.241% and -1.74% and -0.501% and 4.727% and -5.3691% and 0.6426% and 5.237% and 2.017% and 7.517% | cAMP % (hMOR [4]; Log[drug] (M) -11): 9.244% and 1.716% and -4.082% and 4.12% and 6.65% and 8.68% and 7.357% and 0.1804% and -7.538% | cAMP % (hMOR [4]; [9]): 3.279% and -3.532% and 2.642% and -0.9485% and 1.819% and 3.865% and 2.979% and -0.05442% and 0.9166% | Nb33 BRET assay at mMOR, response (mMOR [5]; Log[drug] (M) -5): 6.583 and -1.77 and -4.813 and -2.626 and -1.32 and 4.487 and 18.3783 and 26.5383 and 5.598 and 5.585 and 0.2094 and 5.293 | Nb33 BRET assay at mMOR, response (mMOR [5]; Log[drug] (M) -6): 0.6338 and 14.8405 and 14.4384 and 1.573 and -3.3849 and 2.324 and 3.469 and 13.567 and 11.5483 and 6.799 and 5.845 and 11.4048 | Nb33 BRET assay at mMOR, response (mMOR [5]; Log[drug] (M) -7): 2.525 and -4.237 and 5.069 and -13.128 and 0.1228 and -1.54 and 7.378 and 4.077 and 0.2648 and 1.54 and -4.687 and 9.074 | Nb33 BRET assay at mMOR, response (mMOR [5]; Log[drug] (M) -8): 0.2904 and 1.436 and 1.352 and 1.678 and 1.793 and -7.9215 and -6.277 and -6.486 and -0.06826 and 14.2168 and -0.06924 and 8.399 | Nb33 BRET assay at mMOR, response (mMOR [5]; Log[drug] (M) -9): -2.727 and 5.58 and 0.2255 and 4.116 and 4.119 and -5.256 and -3.689 and -9.68 and 0.5281 and 3.825 and 2.847 and -6.097 | Nb33 BRET assay at mMOR, response (mMOR [5]; Log[drug] (M) -10): 3.545 and 0.5186 and 8.52 and 1.379 and 2.542 and 3.339 and 3.8632 and -1.052 and 9.1269 and 14.9582 and 6.739 and 3.3642 | Nb33 BRET assay at mMOR, response (mMOR [5]; Log[drug] (M) -11): 21.3407 and -2.769 and 15.6698 and -2.476 and 2.836 and -0.3605 and -4.304 and -16.5097 and 20.8133 and -2.923 and -1.5757 and 4.499 | Emax mMOR (mMOR [5]; Nb33 BRET, relative to DAMGO): near the detection limit of the assay | Emax (mMOR [5]; read-out: Emax mMOR, Nb33 BRET, relative to DAMGO): < 10% | IC50 (mMOR [6]): 260 nM | Antagonist activity at mMOR, raw signal (single replicate values) (mMOR [6]; Log[drug] (M) -5): 0.03322 and 0.03306 and 0.04505 and 0.03409 and 0.04171 and 0.03584 and 0.0591 and 0.05619 and 0.05325 | Antagonist activity at mMOR, raw signal (single replicate values) (mMOR [6]; Log[drug] (M) -6): 0.06086 and 0.0551 and 0.06302 and 0.07276 and 0.06512 and 0.0766 and 0.06642 and 0.06116 and 0.08827 | Antagonist activity at mMOR, raw signal (single replicate values) (mMOR [6]; Log[drug] (M) -7): 0.1571 and 0.1681 and 0.1534 and 0.1529 and 0.1704 and 0.1581 and 0.1507 and 0.1426 and 0.1477 | Antagonist activity at mMOR, raw signal (single replicate values) (mMOR [6]; Log[drug] (M) -8): 0.2123 and 0.2016 and 0.2091 and 0.1893 and 0.2024 and 0.2047 and 0.1631 and 0.1656 and 0.156 | Antagonist activity at mMOR, raw signal (single replicate values) (mMOR [6]; Log[drug] (M) -9): 0.2046 and 0.2165 and 0.2136 and 0.191 and 0.2101 and 0.1873 and 0.1659 and 0.1752 and 0.1707 | Antagonist activity at mMOR, raw signal (single replicate values) (mMOR [6]; Log[drug] (M) -10): 0.2086 and 0.2076 and 0.2154 and 0.2091 and 0.201 and 0.211 and 0.1814 and 0.1819 and 0.178 | Antagonist activity at mMOR, raw signal (single replicate values) (mMOR [6]; Log[drug] (M) -11): 0.2091 and 0.1929 and 0.2264 and 0.2001 and 0.2059 and 0.2094 and 0.1761 and 0.1779 and 0.1909 | IC50 (hMOR [7]): 590 nM | Agonist activity of 7OH analogs at mDOR (mDOR [8]; Log[drug] (M) -5): 47.1654 and 47.1068 and 50.635 and 37.9412 and 42.0474 and 46.3733 and 28.2147 and 32.1025 and 39.5821 | Agonist activity of 7OH analogs at mDOR (mDOR [8]; Log[drug] (M) -6): 47.099 and 41.9872 and 38.3786 and 51.107 and 48.5979 and 35.3577 and 31.3142 and 12.8186 and 22.449 | Agonist activity of 7OH analogs at mDOR (mDOR [8]; Log[drug] (M) -7): 30.1688 and 32.9372 and 28.2956 and 32.0377 and 31.8373 and 22.4143 and 6.1677 and 13.5479 and 12.0733 | Agonist activity of 7OH analogs at mDOR (mDOR [8]; Log[drug] (M) -8): 13.6765 and -5.445 and -5.108 and 13.4452 and 4.719 and 1.33 and -3.9215 and 5.792 | Agonist activity of 7OH analogs at mDOR (mDOR [8]; Log[drug] (M) -9): -4.727 and 10.4426 and 11.2028 and 10.7963 and -1.115 and -6.036 and 3.188 and 1.136 and -3.325 | Agonist activity of 7OH analogs at mDOR (mDOR [8]; Log[drug] (M) -10): -4.225 and 3.531 and 0.6939 and 1.589 and -3.887 and 2.298 and 4.3674 and 7.155 and 10.722 | Agonist activity of 7OH analogs at mDOR (mDOR [8]; Log[drug] (M) -11): 12.0117 and 1.607 and 13.3008 and 5.9086 and 13.4698 and 3.259 and 9.679 and 6.216 and 9.4253 | Agonist activity of 7OH analogs at mDOR (mDOR [8]; Log[drug] (M) -13): -0.8332 and 15.6965 and -5.824 and 1.284 and 2.644 and 6.574 and -5.56 and 1.8034 and 3.757 | EC50 (mDOR [8]; mDOR cAMP BRET, read-out: EC50): 102 nM | Emax (mDOR [8]; read-out: Emax): 41% | Agonist activity of 7OH analogs at hDOR (hDOR): 35.2154 and 37.8271 and 20.1668 and 20.0459 and 27.5701 and 32.2497 and 21.4666 and 22.179 and 20.5682
